The target in one assay is T1, HIV protease (Human immunodeficiency virus type 1 group M subtype B, UniProt P04585).
T1 construct: fluorometric method for measurement of HIV-protease (HIV-PR) activity utilizing a synthetic peptide substrate
Kind of assay: biochemical. As to the method:
Compositions to be subjected to enzyme assay are lyophilited and diluted in DMSO to 100-1000 μM. Compositions having apparent IC50 <1 μm are diluted to 100 μM.
The assay is a fluorometric method for measurement of HIV-protease (HIV-PR) activity utilizing a synthetic peptide substrate for HIV-PR based on that described by Matayoshi, E.D.; Wang, G.T.; Krafft, G.A.; and Erickson, J.W.; Science, 1990, 247, 954-958; and Wang, G.T.; Huffker, J.A.; Matayoshi, E.; and Krafft, G.A.; Tetrahedron Lett., 1990, 165 6493-6496.
Buffer: 0.1M sodium acetate
1.0 mM ethylenediaminetetraacetic acid (EDTA)
1.0 mM dithiothreitol (DTT)
10% dimethyl sulfoxide (DMSO)
1 mg/mL bovine serum albumin (BSA) adjusted to pH 4.7
1. Prepare a solution of 2 μM HIV Protease Substrate 1 in the Assay Buffer.
2. Dispense the substrate solution into UV-pass fluorescence cuvettes (1 cm pathlength).
3. Set the excitation and emission monochromators of the spectrofluorimeter to 340 nm and 490 nm, respectively. To obtain the same kinetic constants as reported, cuvettes should be held at 37° C. throughout the assay.
4. Begin each assay by adding a small amount (<3% of the final volume) of HIV-PR-containing solution diluted tin the Assay Buffer.
5. Measure the initial rate of cleavage of fluorogenic substrate by monitoring the increase in fluorescence signal at 490 nm for 5-8 min at 37° C.
(§1) The apparent IC50 and IC50 values reported below in Table 25 were determined using the assays of Example 34 and 35, respectively. The values are indicated as follows: +=10-50 μM, ++2-10 μM, and +++<2 μM.

For a further assay, the system named is HIV IIIB. Kind of assay: XTT cell culture assay, cells infected with HIV IIIB. Type of assay: cell-based. The following applies: Human immunodeficiency virus 1, IIIB, read-out: Cell Culture IC50. As to the method:
The method of Weislow, O.S.; Kiser, R.; Fine, D.L.; Bader, J.; Shoemaker, R.H.; and Boyd, M.R.; I. Nat. Cancer Institute, 1989, 81(8) 577-586 was applied with the following minor modifications:. Infection of cells with HIV IIIB was performed without polybrene. Cells were distributed to Microtiter wells containing the compound of the invention 4 h after infection with HIV IIIB. 2×XTT was added at 5-6 days post infection. 20 μl 2% Triton X-100 was added 1 hour after XTT addition.
1. Add 4 ml of XTT (5 mg/ml) to 8 ml of Deficient RPMI medium (no phenol red, no serum). Mix briefly at 45° C. to dissolve XTT.
2. Add 800 μl of PMS (0.2 mg/ml) to XTT/RPMI mixture.
3. Remove […] of cell free media from each well of a 96 well plate and replace with 100 μl of the XTT/PMS mixture.
4. Incubate at 37° C. for 1.5-2 h.
5. Read absorbance at 450 nm. Absorbance values are directly proportional to cell viability.
as §1
For orientation: Formazan colour is commonly taken as a measure of viable cells.

Setting [1] is: HIV protease, fluorogenic peptide substrate, pH 4.7, 37° C., read-out: Apparent Enzyme IC50.
[2] abbreviates: XTT assay, HIV IIIB infected cells, XTT 5-6 days post infection.

Experimental findings from patent US5811450A, “Thiepane compounds” (Gilead Sciences, Inc., priority 1996, dated 1998) are described below.

Where two headings read alike, the source gives them in different places. A value given as a limit tells only on which side of the number the result lay.

In general, IC50 refers to the point on the concentration scale where inhibition reaches its midpoint. In the case of `N#Cc1ccc(O[C@@H]2[C@H](O)[C@@H](O)[C@@H](Oc3ccc(C#N)cc3)C[S@@+]([O-])[C@@H]2Cc2ccccc2)cc1` [107/13], the concentration for half-maximal inhibition (IC50) at HIV protease (setting [1]) lay in the range of 10000 to 50000 nM.

As for `[O-][S+]1C(Cc2ccccc2)C(OCc2ccccc2)C(O)C(O)C(OCc2ccccc2)C1Cc1ccccc1` (centres unmarked) [108/17], the IC50 in the assay with HIV IIIB (setting [2]) was 2000 to 10000 nM.

Take `O=S1(=O)[C@H](Cc2ccccc2)[C@H](OCc2ccccn2)[C@H](O)[C@@H](O)[C@@H](OCc2cccc[n+]2[O-])[C@H]1Cc1ccccc1` [120/9]: the concentration for half-maximal inhibition (IC50) in the assay with HIV IIIB (setting [2]) was 2000 to 10000 nM; at HIV protease (setting [1]) it was < 2000 nM.

In the case of `Nc1ccc(OC2C(O)C(O)C(Oc3ccc(N)c(C(F)(F)F)c3)C(Cc3ccccc3)S(=O)(=O)C2Cc2ccccc2)cc1C(F)(F)F` (centres unmarked) [125/28], the IC50 in the assay with HIV IIIB (setting [2]) and on HIV protease (setting [1]) was < 2000 nM in each case.

For the compound `O=[N+]([O-])c1cccc(COC2C(O)C(O)C(OCc3cccc([N+](=O)[O-])c3)C(Cc3ccccc3)S(=O)(=O)C2Cc2ccccc2)c1` (centres unmarked) [120/45], the 50% inhibitory concentration (IC50) with HIV IIIB was < 2000 nM.

As for `O=[N+]([O-])c1cccc(CO[C@@H]2[C@H](O)[C@@H](O)C(NCc3ccccc3)C(Cc3ccccc3)S(=O)(=O)[C@@H]2Cc2ccccc2)c1` (some centres unmarked) [108/31], the IC50 in the assay on HIV IIIB (setting [2]) is 2000 to 10000 nM; at HIV protease (setting [1]), < 2000 nM.

As for `Cc1ccc(OC2C(O)C(O)C(Oc3ccc(C)cn3)C(Cc3ccccc3)S(=O)(=O)C2Cc2ccccc2)nc1` (centres unmarked) [125/21], at HIV protease (setting [1]), the IC50 fell in the range of 2000 to 10000 nM.

With `O=S1(=O)C(Cc2ccccc2)C(OCc2cncs2)C(O)C(O)C(OCc2cncs2)C1Cc1ccccc1` (centres unmarked) [120/25], in the assay with HIV IIIB (setting [2]), the half-inhibitory concentration (IC50) was < 2000 nM.

As to `Cc1cccc(O[C@@H]2[C@H](O)[C@@H](O)[C@@H](Oc3cccc(C)n3)[C@@H](Cc3ccccc3)S(=O)(=O)[C@@H]2Cc2ccccc2)n1` [128/31], the IC50 at HIV protease (setting [1]) lay in the range of 10000 to 50000 nM.

For `Nc1cccc(COC2C(O)C(O)C(OCc3cccc(N)c3)C(Cc3ccccc3)S(=O)(=O)C2Cc2ccccc2)c1` (centres unmarked) [120/46], in the assay on HIV IIIB (setting [2]), the IC50 was < 2000 nM.

In the case of `[O-][S+]1CC(OCc2ccccc2)C(O)C(O)C(OCc2ccccc2)C1Cc1ccccc1` (centres unmarked) [107/3], on HIV protease (setting [1]), the IC50 fell in the range of 2000 to 10000 nM.

On to `O=S1(=O)C(Cc2ccccc2)C(NCCCc2ccccc2)[C@H](O)[C@@H](O)[C@@H](OCc2ccccc2)[C@H]1Cc1ccccc1` (some centres unmarked) [108/35], for which the IC50 in the assay with HIV IIIB (setting [2]) is 2000 to 10000 nM; at HIV protease (setting [1]), < 2000 nM.

With `Cc1cccc(COC2C(O)C(O)C(OCc3cccc(C)c3)C(Cc3ccccc3)S(=O)(=O)C2Cc2ccccc2)c1` (centres unmarked) [120/31], in the assay on HIV IIIB (setting [2]), the IC50 is < 2000 nM.

For `O=S1(=O)C(Cc2ccccc2)C(NCc2ccccc2)[C@H](O)[C@@H](O)[C@@H](OCc2ccccc2)[C@H]1Cc1ccccc1` (some centres unmarked) [108/34], the IC50 was 2000 to 10000 nM in the assay on HIV IIIB (setting [2]) and < 2000 nM at HIV protease (setting [1]).

As for `N#Cc1ccccc1O[C@@H]1[C@H](O)[C@@H](O)[C@@H](Oc2ccccc2C#N)C[S@+]([O-])[C@@H]1Cc1ccccc1` [107/8], the IC50 on HIV protease (setting [1]) is 10000 to 50000 nM.

As to `O=S1(=O)[C@H](Cc2ccccc2)[C@H](OCc2ccccn2)[C@H](O)[C@@H](O)[C@@H](OCc2ccccn2)[C@H]1Cc1ccccc1` [120/8], the results for the 50% inhibitory concentration (IC50) in the assay on HIV IIIB (setting [2]) and on HIV protease (setting [1]) were 2000 to 10000 nM and < 2000 nM, respectively.

On to `O=[N+]([O-])c1ccc(OC2C(O)C(O)C(Oc3ccc([N+](=O)[O-])cc3)C(Cc3ccccc3)S(=O)(=O)C2Cc2ccccc2)cc1` (centres unmarked) [125/17], for which the IC50 with HIV IIIB and on HIV protease was < 2000 nM each time.

Regarding `[O-][S+]1CC(OCc2ccccc2)C(O)C(O)C(OCc2ccccc2)C1Cc1ccccc1` (centres unmarked) [107/4], the IC50 with HIV IIIB (setting [2]) was in the range of 10000 to 50000 nM; on HIV protease (setting [1]), 2000 to 10000 nM.

For the compound `O=[N+]([O-])c1ccc(OC2C(O)C(O)C(Oc3ccc([N+](=O)[O-])c(C(F)(F)F)c3)C(Cc3ccccc3)S(=O)(=O)C2Cc2ccccc2)cc1C(F)(F)F` (centres unmarked) [125/27], the IC50 against HIV protease is < 2000 nM.

Take `Cc1ccnc(O[C@@H]2[C@H](O)[C@@H](O)[C@@H](Oc3cc(C)ccn3)[C@@H](Cc3ccccc3)S(=O)(=O)[C@@H]2Cc2ccccc2)c1` [128/35]: the IC50 on HIV protease (setting [1]) is 10000 to 50000 nM.

With `Cc1nc(COC2C(O)C(O)C(OCc3csc(C)n3)C(Cc3ccccc3)S(=O)(=O)C2Cc2ccccc2)cs1` (centres unmarked) [120/22], in the assay with HIV IIIB (setting [2]), the concentration for half-maximal inhibition (IC50) lay within 10000 to 50000 nM.

With `COc1cccc(COC2C(O)C(O)C(OCc3cccc(OC)c3)C(Cc3ccccc3)S(=O)(=O)C2Cc2ccccc2)c1` (centres unmarked) [120/34], the IC50 with HIV IIIB (setting [2]) was < 2000 nM.

`O=[N+]([O-])c1cccc(COC2C(O)C(O)C(OCc3cccc([N+](=O)[O-])c3)C(Cc3ccccc3)[S+]([O-])C2Cc2ccccc2)c1` (centres unmarked) [120/44]: the 50% inhibitory concentration (IC50) in the assay on HIV IIIB is < 2000 nM.

In the case of `CN(C)c1nc(CO[C@@H]2[C@H](O)[C@@H](O)[C@@H](OCc3csc(N(C)C)n3)[C@@H](Cc3ccccc3)S(=O)(=O)[C@@H]2Cc2ccccc2)cs1` [125/14], the IC50 on HIV protease (setting [1]) is < 2000 nM.
